According to ChEMBL document CHEMBL1212938, “Inhibition of mycobacterial replication by pyrimidines possessing various C-5 functionalities and related 2'-deoxynucleoside analogues using in vitro and in vivo models” (J Med Chem, 2010):
Activity calls are given as the source filed them.

Experiments:
Format in all cases: functional, organism-based
Staphylococcus aureus = experiment: Antibacterial activity against Staphylococcus aureus at 100 ug/ml after 16 to 20 hrs by broth microdilution method
Streptococcus pyogenes = experiment: Antibacterial activity against Streptococcus pyogenes at 100 ug/ml after 16 to 20 hrs by broth microdilution method
Enterococcus faecalis = experiment: Antibacterial activity against Enterococcus faecalis at 100 ug/ml after 16 to 20 hrs by broth microdilution method
Proteus vulgaris = experiment: Antibacterial activity against Proteus vulgaris at 100 ug/ml after 16 to 20 hrs by broth microdilution method
[1] = tested on: Staphylococcus epidermidis; experiment: Antibacterial activity against Staphylococcus epidermidis at 100 ug/ml after 16 to 20 hrs by broth microdilution method
Escherichia coli = experiment: Antibacterial activity against Escherichia coli at 100 ug/ml after 16 to 20 hrs by broth microdilution method
Pseudomonas aeruginosa = experiment: Antibacterial activity against Pseudomonas aeruginosa at 100 ug/ml after 16 to 20 hrs by broth microdilution method
Listeria monocytogenes = experiment: Antibacterial activity against Listeria monocytogenes at 100 ug/ml after 16 to 20 hrs by broth microdilution method
Salmonella typhimurium = experiment: Antibacterial activity against Salmonella Typhimurium at 100 ug/ml after 16 to 20 hrs by broth microdilution method; conditions: Salmonella enterica subsp. enterica serovar Typhimurium
Streptococcus pneumoniae = experiment: Antibacterial activity against Streptococcus pneumoniae at 100 ug/ml after 16 to 20 hrs by broth microdilution method
Bacillus subtilis = experiment: Antibacterial activity against Bacillus subtilis at 100 ug/ml after 16 to 20 hrs by broth microdilution method

Measured: Activity

CCCCCc1cc2c[nH]c(=O)nc2o1
inactive: Staphylococcus aureus | Streptococcus pyogenes | Enterococcus faecalis | Proteus vulgaris | [1] | Escherichia coli | Pseudomonas aeruginosa | Listeria monocytogenes | Salmonella typhimurium | Streptococcus pneumoniae | Bacillus subtilis

O=C(O)/C=C/c1c[nH]c(=O)[nH]c1=O
inactive: Staphylococcus aureus | Streptococcus pyogenes | Enterococcus faecalis | Proteus vulgaris | [1] | Escherichia coli | Pseudomonas aeruginosa | Salmonella typhimurium | Streptococcus pneumoniae

O=c1[nH]cc(C(CI)OCCBr)c(=O)[nH]1 (stereo not drawn)
inactive: Staphylococcus aureus | Streptococcus pyogenes | Enterococcus faecalis | Proteus vulgaris | [1] | Escherichia coli | Pseudomonas aeruginosa | Salmonella typhimurium | Streptococcus pneumoniae

O=c1[nH]cc(C(CI)OCC(F)(F)F)c(=O)[nH]1 (stereo not drawn)
inactive: Staphylococcus aureus | Streptococcus pyogenes | Enterococcus faecalis | Proteus vulgaris | [1] | Escherichia coli | Pseudomonas aeruginosa | Salmonella typhimurium | Streptococcus pneumoniae

COC(CCl)c1c[nH]c(=O)[nH]c1=O (stereo not drawn)
inactive: Staphylococcus aureus | Streptococcus pyogenes | Enterococcus faecalis | Proteus vulgaris | [1] | Escherichia coli | Pseudomonas aeruginosa | Salmonella typhimurium | Streptococcus pneumoniae

CCCCCCCCCCC#Cc1c[nH]c(=O)[nH]c1=O
inactive: Staphylococcus aureus | Streptococcus pyogenes | Enterococcus faecalis | Proteus vulgaris | [1] | Escherichia coli | Pseudomonas aeruginosa | Listeria monocytogenes | Salmonella typhimurium | Streptococcus pneumoniae | Bacillus subtilis

CCCCCCCCCCc1cc2c[nH]c(=O)nc2o1
inactive: Staphylococcus aureus | Streptococcus pyogenes | Enterococcus faecalis | Proteus vulgaris | [1] | Escherichia coli | Pseudomonas aeruginosa | Listeria monocytogenes | Salmonella typhimurium | Streptococcus pneumoniae | Bacillus subtilis

CCCCCCCCCCCC#Cc1c[nH]c(=O)[nH]c1=O
inactive: Staphylococcus aureus | Streptococcus pyogenes | Enterococcus faecalis | Proteus vulgaris | [1] | Escherichia coli | Pseudomonas aeruginosa | Listeria monocytogenes | Salmonella typhimurium | Streptococcus pneumoniae | Bacillus subtilis

CCCCCCCCc1cc2c[nH]c(=O)nc2o1
inactive: Staphylococcus aureus | Streptococcus pyogenes | Enterococcus faecalis | Proteus vulgaris | [1] | Escherichia coli | Pseudomonas aeruginosa | Listeria monocytogenes | Salmonella typhimurium | Streptococcus pneumoniae | Bacillus subtilis

CCOC(CI)c1c[nH]c(=O)[nH]c1=O (stereo not drawn)
inactive: Staphylococcus aureus | Streptococcus pyogenes | Enterococcus faecalis | Proteus vulgaris | [1] | Escherichia coli | Pseudomonas aeruginosa | Salmonella typhimurium | Streptococcus pneumoniae

CCCCCCCCC#Cc1c[nH]c(=O)[nH]c1=O
inactive: Staphylococcus aureus | Streptococcus pyogenes | Enterococcus faecalis | Proteus vulgaris | [1] | Escherichia coli | Pseudomonas aeruginosa | Listeria monocytogenes | Salmonella typhimurium | Streptococcus pneumoniae | Bacillus subtilis

O=c1[nH]cc(C(O)CI)c(=O)[nH]1 (stereo not drawn)
inactive: Staphylococcus aureus | Streptococcus pyogenes | Enterococcus faecalis | Proteus vulgaris | [1] | Escherichia coli | Pseudomonas aeruginosa | Salmonella typhimurium | Streptococcus pneumoniae

O=C(O)C(I)C(O)c1c[nH]c(=O)[nH]c1=O (stereo not drawn)
inactive: Staphylococcus aureus | Streptococcus pyogenes | Enterococcus faecalis | Proteus vulgaris | [1] | Escherichia coli | Pseudomonas aeruginosa | Salmonella typhimurium | Streptococcus pneumoniae

COC(CI)c1c[nH]c(=O)[nH]c1=O (stereo not drawn)
inactive: Staphylococcus aureus | Streptococcus pyogenes | Enterococcus faecalis | Proteus vulgaris | [1] | Escherichia coli | Pseudomonas aeruginosa | Salmonella typhimurium | Streptococcus pneumoniae

COC(CBr)c1c[nH]c(=O)[nH]c1=O (stereo not drawn)
inactive: Staphylococcus aureus | Streptococcus pyogenes | Enterococcus faecalis | Proteus vulgaris | [1] | Escherichia coli | Pseudomonas aeruginosa | Salmonella typhimurium | Streptococcus pneumoniae

CCCC#Cc1c[nH]c(=O)[nH]c1=O
inactive: Staphylococcus aureus | Streptococcus pyogenes | Enterococcus faecalis | Proteus vulgaris | [1] | Escherichia coli | Pseudomonas aeruginosa | Listeria monocytogenes | Salmonella typhimurium | Streptococcus pneumoniae | Bacillus subtilis

O=c1[nH]cc(C(CI)OCCF)c(=O)[nH]1 (stereo not drawn)
inactive: Staphylococcus aureus | Streptococcus pyogenes | Enterococcus faecalis | Proteus vulgaris | [1] | Escherichia coli | Pseudomonas aeruginosa | Salmonella typhimurium | Streptococcus pneumoniae

CCCCCCCCCCCCC#Cc1c[nH]c(=O)[nH]c1=O
inactive: Staphylococcus aureus | Streptococcus pyogenes | Enterococcus faecalis | Proteus vulgaris | [1] | Escherichia coli | Pseudomonas aeruginosa | Listeria monocytogenes | Salmonella typhimurium | Streptococcus pneumoniae | Bacillus subtilis
